In US6748954B2, “Drug release from polymer matrices through mechanical stimulation” (The Regents of The University of Michigan, priority 2000, dated 2004):

Assay: in vitro release of trypan blue from alginate hydrogel disks with or without compression
Type: physicochemical
Experimental: In a first in vitro experiment, alginate hydrogels were prepared comprising 10 g PROTANAL, 4 mg trypan blue (Sigma Chemical) as a model drug molecule, and 63 mg CaSO4 (Sigma Chemical). The hydrogels were cut into disks of approximately 12.7 mm diameter and approximately 2 mm thick, and thereafter swollen overnight in the commercially available Dulbecco's Modified Eagle's Medium (DMEM). The hydrogel disks so prepared were next placed in custom-made sample holders of 13 mm diameter and 30 mm length. Porous stainless steel supports were provided on both the top and bottom of each hydrogel disk to permit release of the trypan blue drug during compression of the hydrogels.
The results of this first, in vitro experiment are shown in FIG. 1, which figure comprises an upper chart graphically depicting the mechanical stimulation cycle of compression/relaxation relative to a lower chart graphically depicting the release of the trypan blue drug from the mechanically stimulated hydrogels (line A). The control, non-compressed hydrogels are also depicted in this lower chart (line B).

SMILES: Cc1cc(-c2ccc(/N=N/c3c(S(=O)(=O)O)cc4cc(S(=O)(=O)O)cc(N)c4c3O)c(C)c2)ccc1/N=N/c1c(S(=O)(=O)O)cc2cc(S(=O)(=O)O)cc(N)c2c1O [trypan blue]
- effect of compression on trypan blue release (compressed (A) versus non-compressed (B) hydrogels): did not significantly alter
- release of the trypan blue drug from the compressed hydrogels (compressed hydrogels (line A), three compression/relaxation cycles, 10% maximum compressive strain, DMEM-swollen): increased steadily
